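In this assay, cells in 96-well plates receive the compound at five concentrations for 48 hours. Endpoints are linearly interpolated between the surrounding concentrations. Abbreviation: GI50, concentration required for 50% inhibition of growth. Definition used: TGI = concentration required for complete inhibition of growth.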 Calls of active or inactive are those of the source. Cut-off read from the data, not from the text of the source: active = GI50 below about 0.43 µM; inactive = the rest.
Tests used:
Experiment in all cases: NCI tumour cell line growth inhibition, 48 h
[1] = tested on: SK-OV-3 ovarian
[2] = tested on: OVCAR-5 ovarian
[3] = tested on: DMS 273 small cell lung
[4] = tested on: HT29 colon
[5] = tested on: XF 498 CNS
[6] = tested on: OVCAR-4 ovarian
[7] = tested on: NCI/ADR-RES ovarian
[8] = tested on: MALME-3M melanoma
[9] = tested on: NCI-H226 lung
[10] = tested on: SN12K1 renal
[11] = tested on: SK-MEL-28 melanoma
[12] = tested on: U251 CNS
[13] = tested on: OVCAR-3 ovarian
[14] = tested on: SN12C renal
[15] = tested on: NCI-H23 lung
[16] = tested on: RPMI-8226 leukemia
[17] = tested on: K-562 leukemia
[18] = tested on: EKVX NSCLC
[19] = tested on: CAKI-1 renal
[20] = tested on: DLD-1 colon
[21] = tested on: RXF 393 renal
[22] = tested on: HCC-2998 colon
[23] = tested on: IGROV1 ovarian
[24] = tested on: HOP-18 NSCLC
[25] = tested on: SF-295 CNS
[26] = tested on: UACC-62 melanoma
[27] = tested on: HOP-92 NSCLC
[28] = tested on: HCT-116 colon
[29] = tested on: HCT-15 colon
[30] = tested on: SNB-19 CNS
[31] = tested on: LOX IMVI melanoma
[32] = tested on: HOP-62 NSCLC
[33] = tested on: KM12 colon
[34] = tested on: A498 renal
[35] = tested on: A549 NSCLC
[36] = tested on: UO-31 renal
[37] = tested on: KM20L2 colon
[38] = tested on: MOLT-4 leukemia
[39] = tested on: NCI-H522 lung
[40] = tested on: SW-620 colon
[41] = tested on: MCF7 breast
[42] = tested on: M19-MEL melanoma
[43] = tested on: P388/ADR leukemia
[44] = tested on: CCRF-CEM leukemia
[45] = tested on: UACC-257 melanoma
[46] = tested on: SF-539 CNS
[47] = tested on: SNB-75 CNS
[48] = tested on: OVCAR-8 ovarian
[49] = tested on: SF-268 CNS
[50] = tested on: P388 leukemia
[51] = tested on: SK-MEL-5 melanoma
[52] = tested on: SK-MEL-2 melanoma
[53] = tested on: DMS 114 small cell lung
[54] = tested on: HL-60(TB) leukemia
[55] = tested on: NCI-H460 lung
[56] = tested on: SNB-78 CNS
[57] = tested on: COLO 205 colon

Q: What does the source list for `C=Cc1ccccc1` (tested in a mixture with another compound)?
A: GI50 [1]: > 75 µg/mL; TGI [1]: > 75 µg/mL; GI50 [2]: > 75 µg/mL; TGI [2]: > 75 µg/mL; GI50 [3]: > 75 µg/mL; TGI [3]: > 75 µg/mL; GI50 [4]: > 75 µg/mL; TGI [4]: > 75 µg/mL; outcome [5]: inactive; GI50 [6]: > 75 µg/mL; TGI [6]: > 75 µg/mL; GI50 [7]: > 75 µg/mL; TGI [7]: > 75 µg/mL; GI50 [8]: > 75 µg/mL; TGI [8]: > 75 µg/mL; GI50 [9]: > 75 µg/mL; TGI [9]: > 75 µg/mL; GI50 [10]: > 75 µg/mL; TGI [10]: > 75 µg/mL; GI50 [11]: > 75 µg/mL; TGI [11]: > 75 µg/mL; GI50 [12]: > 75 µg/mL; TGI [12]: > 75 µg/mL; GI50 [13]: > 75 µg/mL; TGI [13]: > 75 µg/mL; GI50 [14]: > 75 µg/mL; TGI [14]: > 75 µg/mL; GI50 [15]: > 75 µg/mL; TGI [15]: > 75 µg/mL; GI50 [16]: > 75 µg/mL; TGI [16]: > 75 µg/mL; GI50 [17]: > 75 µg/mL; TGI [17]: > 75 µg/mL; GI50 [18]: > 75 µg/mL; TGI [18]: > 75 µg/mL; GI50 [19]: > 75 µg/mL; TGI [19]: > 75 µg/mL; GI50 [20]: > 75 µg/mL; TGI [20]: > 75 µg/mL; GI50 [21]: > 75 µg/mL; TGI [21]: > 75 µg/mL; GI50 [22]: > 75 µg/mL; TGI [22]: > 75 µg/mL; GI50 [23]: > 75 µg/mL; TGI [23]: > 75 µg/mL; outcome [24]: inactive; GI50 [25]: > 75 µg/mL; TGI [25]: > 75 µg/mL; GI50 [26]: > 75 µg/mL; TGI [26]: > 75 µg/mL; GI50 [27]: 59.5 µg/mL; TGI [27]: > 75 µg/mL; GI50 [28]: > 75 µg/mL; TGI [28]: > 75 µg/mL; GI50 [29]: > 75 µg/mL; TGI [29]: > 75 µg/mL; GI50 [30]: > 75 µg/mL; TGI [30]: > 75 µg/mL; GI50 [31]: > 75 µg/mL; TGI [31]: > 75 µg/mL; GI50 [32]: 48.4 µg/mL; TGI [32]: > 75 µg/mL; GI50 [33]: > 75 µg/mL; TGI [33]: > 75 µg/mL; GI50 [34]: > 75 µg/mL; TGI [34]: > 75 µg/mL; GI50 [35]: > 75 µg/mL; TGI [35]: > 75 µg/mL; GI50 [36]: > 75 µg/mL; TGI [36]: > 75 µg/mL; outcome [37]: inactive; GI50 [38]: > 75 µg/mL; TGI [38]: > 75 µg/mL; GI50 [39]: > 75 µg/mL; TGI [39]: > 75 µg/mL; GI50 [40]: > 75 µg/mL; TGI [40]: > 75 µg/mL; GI50 [41]: > 75 µg/mL; TGI [41]: > 75 µg/mL; GI50 [42]: > 75 µg/mL; TGI [42]: > 75 µg/mL; GI50 [43]: > 75 µg/mL; TGI [43]: > 75 µg/mL; GI50 [44]: > 75 µg/mL; TGI [44]: > 75 µg/mL; GI50 [45]: > 75 µg/mL; TGI [45]: > 75 µg/mL; GI50 [46]: > 75 µg/mL; TGI [46]: > 75 µg/mL; GI50 [47]: 28.3 µg/mL; TGI [47]: > 75 µg/mL; GI50 [48]: 63.3 µg/mL; TGI [48]: > 75 µg/mL; GI50 [49]: > 75 µg/mL; TGI [49]: > 75 µg/mL; GI50 [50]: > 75 µg/mL; TGI [50]: > 75 µg/mL; GI50 [51]: > 75 µg/mL; TGI [51]: > 75 µg/mL; GI50 [52]: > 75 µg/mL; TGI [52]: > 75 µg/mL; GI50 [53]: > 75 µg/mL; TGI [53]: > 75 µg/mL; GI50 [54]: > 75 µg/mL; TGI [54]: > 75 µg/mL; GI50 [55]: > 75 µg/mL; TGI [55]: > 75 µg/mL

Q: `C[C@H]1COC(c2ccccn2)=N1` was tested. Which TGI [1] did it give?
A: The TGI was over 100 µM.

Q: What about the TGI [2] of the same molecule?
A: The TGI was over 100 µM.

Q: What about the TGI [3] of the same molecule?
A: Its TGI is over 100 µM.

Q: And the TGI [56]?
A: Its TGI is over 100 µM.

Q: And the TGI [4]?
A: Its TGI is over 100 µM.

Q: What about the TGI [5] of the same molecule?
A: The TGI was over 100 µM.

Q: And the TGI [6]?
A: The TGI was over 100 µM.

Q: And the TGI [7]?
A: The TGI was over 100 µM.

Q: What about the TGI [8] of the same molecule?
A: The TGI was over 100 µM.

Q: And the TGI [9]?
A: Its TGI is over 100 µM.

Q: And the TGI [10]?
A: Its TGI is over 100 µM.

Q: And the TGI [11]?
A: Its TGI is over 100 µM.

Q: What about the TGI [12] of the same molecule?
A: Its TGI is over 100 µM.

Q: And the TGI [13]?
A: Its TGI is over 100 µM.

Q: What about the TGI [14] of the same molecule?
A: Its TGI is over 100 µM.

Q: What about the TGI [15] of the same molecule?
A: The TGI was over 100 µM.

Q: And the TGI [16]?
A: Its TGI is over 100 µM.

Q: What about the TGI [17] of the same molecule?
A: The TGI was over 100 µM.

Q: What about the TGI [18] of the same molecule?
A: Its TGI is over 100 µM.

Q: And the TGI [19]?
A: Its TGI is over 100 µM.

Q: And the TGI [20]?
A: The TGI was over 100 µM.

Q: And the TGI [21]?
A: The TGI was over 100 µM.

Q: And the TGI [22]?
A: Its TGI is over 100 µM.

Q: And the TGI [23]?
A: Its TGI is over 100 µM.

Q: And the TGI [24]?
A: Its TGI is over 100 µM.

Q: And the TGI [25]?
A: Its TGI is over 100 µM.

Q: And the TGI [26]?
A: Its TGI is over 100 µM.

Q: And the TGI [27]?
A: The TGI was over 100 µM.

Q: What about the TGI [28] of the same molecule?
A: Its TGI is over 100 µM.

Q: What about the TGI [29] of the same molecule?
A: Its TGI is over 100 µM.

Q: And the TGI [30]?
A: Its TGI is over 100 µM.

Q: And the TGI [31]?
A: The TGI was over 100 µM.

Q: What about the TGI [32] of the same molecule?
A: The TGI was over 100 µM.

Q: What about the TGI [33] of the same molecule?
A: Its TGI is over 100 µM.

Q: And the TGI [34]?
A: Its TGI is over 100 µM.

Q: What about the TGI [35] of the same molecule?
A: Its TGI is over 100 µM.

Q: What about the TGI [36] of the same molecule?
A: The TGI was over 100 µM.

Q: And the TGI [37]?
A: The TGI was over 100 µM.

Q: What about the TGI [57] of the same molecule?
A: The TGI was over 100 µM.

Q: What about the TGI [38] of the same molecule?
A: The TGI was over 100 µM.

Q: And the TGI [39]?
A: Its TGI is over 100 µM.

Q: And the TGI [40]?
A: The TGI was over 100 µM.

Q: What about the TGI [41] of the same molecule?
A: Its TGI is over 100 µM.

Q: And the TGI [42]?
A: The TGI was over 100 µM.

Q: What about the TGI [43] of the same molecule?
A: Its TGI is over 100 µM.

Q: And the TGI [44]?
A: The TGI was over 100 µM.

Q: What about the TGI [45] of the same molecule?
A: The TGI was over 100 µM.

Q: What about the TGI [46] of the same molecule?
A: Its TGI is over 100 µM.

Q: What about the TGI [47] of the same molecule?
A: Its TGI is over 100 µM.

Q: What about the TGI [48] of the same molecule?
A: The TGI was over 100 µM.

Q: And the TGI [49]?
A: The TGI was over 100 µM.

Q: And the TGI [50]?
A: The TGI was over 100 µM.

Q: And the TGI [51]?
A: The TGI was over 100 µM.

Q: And the TGI [52]?
A: Its TGI is over 100 µM.

Q: What about the TGI [54] of the same molecule?
A: The TGI was over 100 µM.

Q: What about the TGI [55] of the same molecule?
A: The TGI was over 100 µM.

Reference: PubChem BioAssay (NCI)
